For orientation: Ki means a measure of affinity in units of concentration, obtained from inhibition or displacement. By IC50 is commonly meant the concentration that gives 50% inhibition. Higher therefore signals weaker potency in that assay.

Each structure is given as a SMILES string. Where a SMILES comes first, the peptide text is derived from it. [ ]: non-standard residue; d: D form. ξ: configuration not given here. Ile(3ξ) = CCC(C)[C@H](N)C(=O)O; Thr(3ξ) = CC(O)[C@H](N)C(=O)O

Here are results for two compounds from BindingDB's records for doi:10.1021/jm0506625 (Washington University, 2005).

The target in one assay is T1, Caspase-3 (Homo sapiens, UniProt P42574).
T1 sequence (P42574 whole entry): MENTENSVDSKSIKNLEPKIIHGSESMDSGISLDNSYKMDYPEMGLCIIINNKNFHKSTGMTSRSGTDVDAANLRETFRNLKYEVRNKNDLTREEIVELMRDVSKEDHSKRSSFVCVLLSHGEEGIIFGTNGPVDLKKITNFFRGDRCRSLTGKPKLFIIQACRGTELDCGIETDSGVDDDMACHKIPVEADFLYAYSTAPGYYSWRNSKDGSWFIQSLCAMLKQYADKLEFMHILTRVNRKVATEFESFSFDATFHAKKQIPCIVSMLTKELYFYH
The assay is described as follows: Caspase Inhibition Assay. As to the method:
(§1) The substrate peptides terminating in AMC are processed by caspases with or without inhibitors. […] Compounds were tested in duplicate, and IC50 curves were calculated for all inhibitors. Final IC50s were the average of three independent experiments.

A further assay has as its target Caspase-8 (Homo sapiens, UniProt Q14790). The assay is described as follows: Caspase Inhibition Assay. As to the method: as §1

Chain of Caspase-8 (Q14790 217-374 limits assumed): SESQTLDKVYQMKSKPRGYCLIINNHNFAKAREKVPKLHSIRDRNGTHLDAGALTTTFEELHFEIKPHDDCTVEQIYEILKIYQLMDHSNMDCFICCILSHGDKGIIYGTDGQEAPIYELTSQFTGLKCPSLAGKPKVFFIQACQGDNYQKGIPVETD
Chain of Caspase-8 (Q14790 385-479 limits assumed): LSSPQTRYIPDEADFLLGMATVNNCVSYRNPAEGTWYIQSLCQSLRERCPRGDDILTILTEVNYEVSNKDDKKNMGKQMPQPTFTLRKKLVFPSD

`COc1ccc(CN2C(=O)C(=O)c3cc(S(=O)(=O)N4CCC[C@H]4COc4cccnc4)ccc32)cc1` [1-[(4-methoxyphenyl)methyl]-5-{[(2S)-2-[(pyridin-3-yloxy)methyl]pyrrolidine-1-]sulfonyl}-2,3-dihydro-1H-indole-2,3-dione] came in with a Ki at Caspase-3 of 4.4 nM.
In turn, `CCC(C)[C@H](NC(C)=O)C(=O)N[C@@H](CCC(=O)O)C(=O)N[C@H](C(=O)N[C@H](C=O)CC(=O)O)C(C)O` (stereo partly drawn) [(4S)-4-{[(1S)-1-{[(2S)-1-carboxy-3-oxopropan-2-yl]carbamoyl}-2-hydroxypropyl]carbamoyl}-4-[(2S)-2-acetamido-3-methylpentanamido]butanoic acid] (Ac-[Ile(3ξ)]E[Thr(3ξ)]D-aldehyde) returned an IC50 against Caspase-8 of 4.7 nM.
